Experiments:
Format in all cases: cell-based
SMARCA4 = target: T1, SMARCA4 (Homo sapiens, UniProt P51532); test: SMARCA4 Western blot MV4-11 degradation; conditions: MV4-11 cells, 24 h; for DC50: read-out: SMARCA4 MSD MV411 degradation 24 h: Mean external-Abs DC50; for Dmax: read-out: SMARCA4 MSD MV411 degradation 24 h: average Dmax %
T1 construct: SMARCA2/SMARCA4 protein degradation selectivity in MV4-11 cells; endogenous in cells; host or cells: MV4-11
Method: Cells were seeded into 6-well plates (MV4-11: 4×10^6 cells/well/1 ml) and 1 ml of 2× compound solution was added into the well to make the final concentration and the plates were mixed well and incubated for 24 hours (No cytotoxicity was observed). The cell were collected with media and spun at 3000 rpm for 5 minutes. The supernatant was aspirated and the well and the cells were washed with cold PBS once and combined for centrifugation again; the supernatant aspirated again. 200 uL pre-chilled RIPA lysis buffer (Boston BioProducts BP-115D) with protease/phosphatase inhibitor (Roche 05892791001/Roche 04906837001) was directly added into the tube to lyze the cells for 20 minutes on ice. The cell lysate were collected into EP tubes and spun at 13000 rpm for 20 minutes and 72 uL supernatant was transferred to a fresh EP tube containing 18 uL of 5× loading buffer (Beyotime Bio P0015) to make the loading samples. The samples were heated to 100° C. for 10 minutes and cooled to RT and microcentrifuged. 20 uL of samples were loaded onto SDS-PAGE gel (Novex, WG1402BOX) and the gel was run at 80 V for 20 minutes and 120 V for 1.5 hours. The samples were electrotransfer to a NC membrane using wet-transfer method with 250 mA for 2.5 hours. The membrane was blocked with LICOR blocking buffer (LICOR, 927-50000) for 1 hour. The membrane was washed three times with TBST(CST #9997S), 5 minutes each. Incubation was performed with primary antibody prepared in blocking buffer with 0.1% Tween-20 (Solarbio, P8220) at 4° C. overnight (Anti-SMARCA2/BRM antibody (ab15597) 1:500; Anti-BRG1 antibody [EPR3912] (ab108318) 1:1000; Rabbit anti-Baf180 antibody [EPR15860] (Abeam,ab 196022) 1:1000; mouse anti-beta-Actin (8H10D10) (CST #3700) 1:10000). The membrane was washed three times with TBST, 5 minutes each. Incubation with secondary antibody was performed for 1 hour at RT (anti-rabbit IgG (Licor, 926-32211) 1:5000; anti-mouse IgG (LI-COR, 926-68070) 1:5000). The membrane was washed three times with 5 minutes each and lastly the LiCOR was read.
(§1) The letter codes for SMARCA2/4 degradation potency (DC50) include: A (<100 nM), B (100-500 nM), C (501-1000 nM), and D (>1000 nM). The letter codes for the percentage of SMARCA degradation after 24 hours (Dmax %) include: A (>90% degradation), B (>70-90% degradation), C (50-70% degradation), and D (<50% degradation).

SMARCA2 [1] = target: T2, SMARCA2 (Homo sapiens, UniProt P51531); test: MSD SMARCA2 degradation in A549 cell line; conditions: A549 cells, 24 h; for DC50: read-out: SMARCA2 MSD A549 degradation 24 h: Average external-Abs DC50
T2 sequence (P51531 whole entry): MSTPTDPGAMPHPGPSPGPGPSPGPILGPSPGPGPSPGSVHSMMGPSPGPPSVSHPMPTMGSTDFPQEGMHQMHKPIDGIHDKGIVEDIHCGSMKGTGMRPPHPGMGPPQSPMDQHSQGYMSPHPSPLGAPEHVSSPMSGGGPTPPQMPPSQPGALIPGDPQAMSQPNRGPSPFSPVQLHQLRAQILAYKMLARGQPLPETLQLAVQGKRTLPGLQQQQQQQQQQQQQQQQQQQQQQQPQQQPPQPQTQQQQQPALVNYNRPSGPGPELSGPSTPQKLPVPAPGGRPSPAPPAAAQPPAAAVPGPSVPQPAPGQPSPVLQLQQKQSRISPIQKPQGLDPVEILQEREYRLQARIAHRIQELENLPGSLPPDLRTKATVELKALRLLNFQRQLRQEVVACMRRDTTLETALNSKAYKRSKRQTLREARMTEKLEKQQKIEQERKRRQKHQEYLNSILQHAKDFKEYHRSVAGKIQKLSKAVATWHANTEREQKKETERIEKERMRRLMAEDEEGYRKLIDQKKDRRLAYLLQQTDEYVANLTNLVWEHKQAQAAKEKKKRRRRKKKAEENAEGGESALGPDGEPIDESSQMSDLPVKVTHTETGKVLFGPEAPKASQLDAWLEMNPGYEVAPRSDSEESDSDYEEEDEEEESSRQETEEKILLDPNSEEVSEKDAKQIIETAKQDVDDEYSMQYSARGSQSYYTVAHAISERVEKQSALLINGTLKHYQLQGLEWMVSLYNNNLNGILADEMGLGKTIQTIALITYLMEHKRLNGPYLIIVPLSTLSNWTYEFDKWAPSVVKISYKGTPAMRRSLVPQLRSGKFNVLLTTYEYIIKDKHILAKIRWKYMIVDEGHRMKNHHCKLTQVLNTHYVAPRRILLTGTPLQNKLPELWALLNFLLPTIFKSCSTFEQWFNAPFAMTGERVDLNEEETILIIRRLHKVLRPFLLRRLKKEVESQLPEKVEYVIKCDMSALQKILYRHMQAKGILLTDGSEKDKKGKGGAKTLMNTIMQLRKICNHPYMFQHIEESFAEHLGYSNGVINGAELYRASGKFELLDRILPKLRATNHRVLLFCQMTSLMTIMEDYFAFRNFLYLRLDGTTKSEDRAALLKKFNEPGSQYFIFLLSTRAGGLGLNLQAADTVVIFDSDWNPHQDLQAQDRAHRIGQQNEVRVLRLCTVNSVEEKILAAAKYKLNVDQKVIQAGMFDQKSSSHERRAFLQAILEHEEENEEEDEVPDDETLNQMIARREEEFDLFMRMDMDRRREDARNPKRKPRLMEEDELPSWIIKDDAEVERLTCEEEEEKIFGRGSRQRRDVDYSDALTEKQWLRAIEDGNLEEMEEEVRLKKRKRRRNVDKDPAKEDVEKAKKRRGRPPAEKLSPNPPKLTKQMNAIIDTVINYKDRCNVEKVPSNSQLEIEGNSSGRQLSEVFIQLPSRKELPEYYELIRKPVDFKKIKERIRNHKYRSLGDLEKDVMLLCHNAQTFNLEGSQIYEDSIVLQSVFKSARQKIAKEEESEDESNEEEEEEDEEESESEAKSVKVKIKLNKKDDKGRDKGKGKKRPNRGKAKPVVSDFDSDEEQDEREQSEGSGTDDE
Method: Cells were seeded into 96-well plates (A549 cells: 2×10^4 cells/well/100 ul media) and incubated overnight. The next day, 200 nL compound were added into the intermediate plate with Echo (Labcyte 550) from source plate containing a 3-fold serial dilution from top concentration of 1 mM. The culture medium was changed with 80 ul of fresh medium and 80 uL of 2× compound solution was added into the well to make a final concentration of 1000 nM, 333.3 nM, 111.1 nM, 37.04 nM, 12.35 nM, 4.115 nM, 1.372 nM, 0.457 nM, 0.152 nM and 0 nM (DMSO). The wells were mixed and then incubated for 24 hours. The media was aspirated from the cultures and 60 ul pre-chilled PIPA lysis buffer (Boston BioProducts BP-115D) with protease/phosphatase inhibitor (Roche 05892791001/Roche 04906837001) was added into the well to lyze the cells for 20 minutes at 4° C. The MSD plate (L15XA) was coated with 40 uL cell lysate and incubated at 4° C. overnight. The next day, the plate was washed three times with TBST (CST #9997S), 150 ul/well. The MSD plates was blocked with 150 ul blocking buffer per well and shaked for 1 hr at RT, 600 rpm. The blocking buffer was 3% Blocker A (MSD, R93BA-4) in TBST. The MSD plate was washed three times with 150 uL/well of TBST and 25 ul/well of detection antibody (Rabbit anti-SMARCA2/BRM antibody, 100 μg/mL, ab223735) was added at final concentration of 1 ug/mL diluted in 1% Blocking buffer and shaken for 1 hour at RT, 600 rpm. The MSD plate was washed three times with 150 ul/well of TBST and 25 ul/well of SULFO-TAG anti-rabbit antibody (MSD, R32AB-1) was added at final concentration of 1 ug/ml diluted in 1% Blocking buffer and shaken for 1 hour at RT, 600 rpm. The MSD plate was washed three times with 150 uL/well of TBST and 150 ul/well of 2×MSD reading buffer diluted from 4× (MSD, R92TC-2) with water was added. Lastly, the MSD instrument was read.
as §1, with “SMARCA2” for “SMARCA2/4”

SMARCA2 [2] = target: T2, SMARCA2; test: SMARCA2 Western blot MV4-11 degradation; parameters: SMARCA2/SMARCA4 protein degradation selectivity in MV4-11 cells; endogenous in cells; host or cells: MV4-11; conditions: MV4-11 cells, 24 h; for DC50: read-out: SMARCA2 MSD MV411 degradation 24 h: Mean external-Abs DC50; for Dmax: read-out: SMARCA2 MSD MV411 degradation 24 h: average Dmax %

T1 sequence (P51532 whole entry): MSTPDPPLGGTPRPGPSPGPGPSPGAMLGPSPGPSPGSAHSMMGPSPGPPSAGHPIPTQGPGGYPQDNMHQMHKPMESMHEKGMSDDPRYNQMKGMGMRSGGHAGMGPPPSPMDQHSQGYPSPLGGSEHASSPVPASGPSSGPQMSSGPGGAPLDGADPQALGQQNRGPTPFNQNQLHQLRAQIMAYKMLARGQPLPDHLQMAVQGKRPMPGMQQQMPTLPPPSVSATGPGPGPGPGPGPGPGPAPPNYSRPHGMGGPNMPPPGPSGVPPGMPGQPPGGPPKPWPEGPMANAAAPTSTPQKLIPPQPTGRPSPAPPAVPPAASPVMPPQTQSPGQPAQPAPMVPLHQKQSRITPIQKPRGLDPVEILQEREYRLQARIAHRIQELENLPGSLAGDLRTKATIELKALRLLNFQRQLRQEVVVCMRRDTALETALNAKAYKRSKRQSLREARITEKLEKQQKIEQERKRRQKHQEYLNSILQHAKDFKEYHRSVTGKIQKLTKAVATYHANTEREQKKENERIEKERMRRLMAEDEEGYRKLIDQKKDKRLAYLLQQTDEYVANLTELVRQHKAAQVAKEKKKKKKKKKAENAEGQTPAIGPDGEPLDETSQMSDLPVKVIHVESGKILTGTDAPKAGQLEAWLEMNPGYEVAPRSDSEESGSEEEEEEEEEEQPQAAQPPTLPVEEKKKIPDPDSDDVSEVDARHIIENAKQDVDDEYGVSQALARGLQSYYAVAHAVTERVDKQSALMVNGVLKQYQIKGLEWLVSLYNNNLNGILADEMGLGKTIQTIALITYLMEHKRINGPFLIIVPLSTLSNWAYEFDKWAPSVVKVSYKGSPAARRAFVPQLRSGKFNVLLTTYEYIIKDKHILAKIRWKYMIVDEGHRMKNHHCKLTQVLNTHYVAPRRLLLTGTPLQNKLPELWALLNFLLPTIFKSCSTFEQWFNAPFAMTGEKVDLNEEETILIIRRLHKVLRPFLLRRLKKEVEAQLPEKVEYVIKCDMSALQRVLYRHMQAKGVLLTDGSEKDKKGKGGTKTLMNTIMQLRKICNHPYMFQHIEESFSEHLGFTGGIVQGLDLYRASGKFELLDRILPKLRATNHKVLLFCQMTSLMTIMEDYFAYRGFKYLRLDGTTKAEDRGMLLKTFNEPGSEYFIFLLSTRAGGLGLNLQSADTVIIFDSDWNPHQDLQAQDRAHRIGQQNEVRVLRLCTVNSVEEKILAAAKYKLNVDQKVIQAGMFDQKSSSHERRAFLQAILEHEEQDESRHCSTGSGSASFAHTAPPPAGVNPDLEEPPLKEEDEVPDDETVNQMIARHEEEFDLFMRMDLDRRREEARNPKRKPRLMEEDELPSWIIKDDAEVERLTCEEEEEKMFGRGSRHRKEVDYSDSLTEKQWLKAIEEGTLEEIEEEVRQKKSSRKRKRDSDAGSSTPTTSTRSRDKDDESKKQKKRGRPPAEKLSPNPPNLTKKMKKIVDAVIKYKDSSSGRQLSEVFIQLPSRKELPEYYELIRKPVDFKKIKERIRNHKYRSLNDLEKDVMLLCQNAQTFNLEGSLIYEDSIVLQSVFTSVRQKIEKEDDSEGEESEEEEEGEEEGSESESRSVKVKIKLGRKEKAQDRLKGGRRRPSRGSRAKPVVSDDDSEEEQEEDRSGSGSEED

DC50 (SMARCA4)	Dmax (SMARCA4)	Dmax (SMARCA2 [1])	DC50 (SMARCA2 [1])	DC50 (SMARCA2 [2])	Dmax (SMARCA2 [2])	Compound
> 1000 nM	< 50%	70 to 90%	100 to 500 nM	< 100 nM	70 to 90%	Cc1ncsc1-c1ccc(CNC(=O)[C@@H]2C[C@@H](O)CN2C(=O)[C@@H](NC(=O)[C@H]2CC3(C2)C[C@H](N2CCC(c4cnc(N5CCc6[nH]c7nnc(-c8ccccc8O)cc7c6[C@H]5C)nc4)CC2)C3)C(C)(C)C)cc1 (single isomer, unassigned) [I-40]
> 1000 nM	–	–	100 to 500 nM	< 100 nM	–	Cc1ncsc1-c1ccc(CNC(=O)[C@@H]2C[C@@H](O)CN2C(=O)[C@@H](NC(=O)[C@H]2CC3(C2)C[C@H](N2CCC(c4cnc(N5CCc6[nH]c7nnc(-c8ccccc8O)cc7c6[C@H]5C)nc4)CC2)C3)C(C)(C)C)cc1 (single isomer, unassigned) [I-41]
> 1000 nM	< 50%	> 90%	< 100 nM	< 100 nM	70 to 90%	Cc1ncsc1-c1ccc(CNC(=O)[C@@H]2C[C@@H](O)CN2C(=O)[C@@H](NC(=O)C2CC3(C2)CC(N2CCC(c4cnc(N5CCc6[nH]c7nnc(-c8ccccc8O)cc7c6[C@H]5C)nc4)CC2)C3)C(C)(C)C)cc1 (stereo partly drawn) [I-38, (2S,4R)-4-hydroxy-1-((S)-2-(6-(4-(2-((R)-3-(2-hydroxyphenyl)-5-methyl-7,8-dihydro-5H-pyrido[3′,4′:4,5]pyrrolo[2,3-c]pyridazin-6(9H)-yl)pyrimidin-5-yl)piperidin-1-yl)spiro[3.3]heptane-2-carboxamido)-3,3-dimethylbutanoyl)-N-(4-(4-methylthiazol-5-yl)benzyl)pyrrolidine-2-carboxamide]

Continued, molecule first:

Compound	DC50 (SMARCA4)	Dmax (SMARCA4)	Dmax (SMARCA2 [1])	DC50 (SMARCA2 [1])	DC50 (SMARCA2 [2])	Dmax (SMARCA2 [2])
Cc1ncsc1-c1ccc(CNC(=O)[C@@H]2C[C@@H](O)CN2C(=O)[C@@H](NC(=O)C2CC3(C2)CC(N2CCC(c4ccnc(N5CCc6[nH]c7nnc(-c8ccccc8O)cc7c6[C@H]5C)n4)CC2)C3)C(C)(C)C)cc1 (stereo partly drawn) [I-13, (2S,4R)-4-hydroxy-1-((S)-2-(6-(4-(2-((R)-3-(2-hydroxyphenyl)-5-methyl-7,8-dihydro-5H-pyrido[3′,4′:4,5]pyrrolo[2,3-c]pyridazin-6(9H)-yl)pyrimidin-4-yl)piperidin-1-yl)spiro[3.3]heptane-2-carboxamido)-3,3-dimethylbutanoyl)-N-(4-(4-methylthiazol-5-yl)benzyl)pyrrolidine-2-carboxamide]	> 1000 nM	50 to 70%	< 50%	> 1000 nM	501 to 1000 nM	50 to 70%
Cc1ncsc1-c1ccc(CNC(=O)[C@@H]2C[C@@H](O)CN2C(=O)[C@@H](NC(=O)C2CC3(C2)CC(N2CCC(c4ccnc(N5CCc6[nH]c7nnc(-c8ccccc8O)cc7c6[C@@H]5C)n4)CC2)C3)C(C)(C)C)cc1 (stereo partly drawn) [I-14, (2S,4R)-4-hydroxy-1-((S)-2-(6-(4-(2-((S)-3-(2-hydroxyphenyl)-5-methyl-7,8-dihydro-5H-pyrido[3′,4′:4,5]pyrrolo[2,3-c]pyridazin-6(9H)-yl)pyrimidin-4-yl)piperidin-1-yl)spiro[3.3]heptane-2-carboxamido)-3,3-dimethylbutanoyl)-N-(4-(4-methylthiazol-5-yl)benzyl)pyrrolidine-2-carboxamide]	> 1000 nM	50 to 70%	70 to 90%	100 to 500 nM	< 100 nM	70 to 90%
Cc1ncsc1-c1ccc(CNC(=O)[C@@H]2C[C@@H](O)CN2C(=O)[C@@H](NC(=O)C2CC3(C2)CC(N2CCC(c4cnc(N5CCc6[nH]c7nnc(-c8ccccc8O)cc7c6[C@@H]5C)nc4)CC2)C3)C(C)(C)C)cc1 (stereo partly drawn) [I-37, (2S,4R)-4-hydroxy-1-((S)-2-(6-(4-(2-((S)-3-(2-hydroxyphenyl)-5-methyl-7,8-dihydro-5H-pyrido[3′,4′:4,5]pyrrolo[2,3-c]pyridazin-6(9H)-yl)pyrimidin-5-yl)piperidin-1-yl)spiro[3.3]heptane-2-carboxamido)-3,3-dimethylbutanoyl)-N-(4-(4-methylthiazol-5-yl)benzyl)pyrrolidine-2-carboxamide]	–	–	70 to 90%	100 to 500 nM	100 to 500 nM	50 to 70%

Reference: US11679109B2, “SMARCA degraders and uses thereof” (Kymera Therapeutics, Inc., priority 2019, dated 2023)
